Laboratory results from patent US6803359B2, “Inhibition of abnormal cell growth with corticotropin-releasing hormone analogs” (The Regents of the University of California, priority 1999, dated 2004).
Marks after values point to notes of the source that are not given here.

Key:
[1] = Hypotensive effect in pentobarbital-anesthetized male rats after i.v. injection; details: 0.05 mg/kg i.v.
Experimental: (§3) On the ordinate, the response is given in units of integrated blood pressure observed over a 100 minute period after the intravenous injection of the test substance is pentobarbital-anesthetized rats (no. of animals=8 per group per dose). The area-under-curve, is given in units of mm Hg per minute.

W256 cells = details: in vitro; cited from earlier work
[2] = test system: W256 rat mammary carcinoma; details: 100 micrograms/kg subcutaneously twice a day for 3 days; cited from earlier work
B16 melanoma = experiment: Growth of subcutaneously transplanted B16 melanoma in mice (tumor volume by caliper); assay type: in vivo; details: 0.1 mg/kg s.c. on days 3 to 7
Experimental: (§1) This example illustrates the anti-cancer property of an inventive peptide with a D-amino acid as residue 20. Various tumor cells were transplanted into mice or rats and the tumor volume was measured using a caliper-ruler. The volume of the tumor, in cubic mm, was estimated as the long axis×the square of the short axis divided by 2.
In the experiment of Table 2, female mice, weighing 20-25 g, of a C57B1 line, were transplanted under the skin with B16 melanoma cells. After transplantation of tumors mice were mixed and divided into groups of controls, CRH-treated and [D-Glu^20] CRH-treated. The test substances at a dose of 0.1 mg/kg subcutaneously or the vehicle control (saline) was injected on days 3 to 7 after tumor transplantation, and the volume of tumors were measured at various days afterwards.

Walker carcinosarcoma = experiment: Growth of subcutaneously transplanted Walker carcinosarcoma in rats (tumor volume); assay type: in vivo; details: 0.1 mg/kg
Experimental: as §1
(§2) The second experiment and third experiment (data shown in Tables 3 and 4) were conducted on white non-inbred male rats with a subcutaneous transplant of Walker carcinosarcoma or Ehrlich solid carcinoma. Animals after transplantation of tumors were mixed and were divided into groups of controls, CRH-treated and [D-Glu^20] CRH-treated.

Ehrlich solid carcinoma = experiment: Growth of subcutaneously transplanted Ehrlich solid carcinoma in rats (tumor volume); assay type: in vivo; details: 0.1 mg/kg
Experimental: as §1, §2

[3] = in vivo, iv
Experimental: as §3

| Compound | average fall in mean blood pressure over a 100 minute period [1] | integrated blood pressure response (area-under-curve) over a 100 minute period [1] | antiproliferative effects in W256 cell cultures (W256 cells) | inhibition of growth of intracerebrally-injected W256 tumor cells [2] | Volume of Tumors (B16 melanoma; day 10 after transplantation) | Volume of Tumors (B16 melanoma; day 12 after transplantation) | Volume of Tumors (B16 melanoma; day 14 after transplantation) | Volume of Tumors (B16 melanoma; day 17 after transplantation) | Volume of Tumors (Walker carcinosarcoma; day 7 after transplantation) | Volume of Tumors (Walker carcinosarcoma; day 10 after transplantation) | Volume of Tumors (Walker carcinosarcoma; day 12 after transplantation) | Volume of Tumors (Walker carcinosarcoma; day 14 after transplantation) | Volume of Tumors (Ehrlich solid carcinoma; day 9 after transplantation) | Volume of Tumors (Ehrlich solid carcinoma; day 11 after transplantation) | Volume of Tumors (Ehrlich solid carcinoma; day 14 after transplantation) | hypotensive activity compared with unmodified CRH (human/rat) control [3] |
| --- | --- | --- | --- | --- | --- | --- | --- | --- | --- | --- | --- | --- | --- | --- | --- | --- |
| hCRH: unmodified human/rat corticotropin-releasing hormone, 41-residue C-terminally amidated peptide, SEQ ID NO 1 | 72 mm Hg | approximately 7200 mm Hg-min | antiproliferative effects | significant inhibition of growth | 29 + 7* mm^3 | 157 + 23* mm^3 | 133 + 15* mm^3 | 238 + 41 mm^3 | 196 mm^3 | 3600 ± 413 mm^3 | 6942 mm^3 | 10832 mm^3 | 226 ± 14* mm^3 | 384 ± 61* mm^3 | 763 ± 114* mm^3 |  |
| CC[C@H](C)[C@H](NC(=O)[C@@H](NC(=O)[C@H](CCC(=O)O)NC(=O)[C@H](CCSC)NC(=O)[C@H](CC(C)C)NC(=O)[C@H](CCCCN)NC(=O)[C@H](CCCNC(=N)N)NC(=O)[C@H](CC(N)=O)NC(=O)[C@H](CO)NC(=O)[C@H](Cc1c[nH]cn1)NC(=O)[C@H](C)NC(=O)[C@H](CCC(N)=O)NC(=O)[C@H](CCC(N)=O)NC(=O)[C@H](C)NC(=O)[C@H](CC(C)C)NC(=O)[C@H](CCC(N)=O)NC(=O)[C@H](CCC(=O)O)NC(=O)[C@H](C)NC(=O)[C@H](CCCNC(=N)N)NC(=O)[C@H](C)NC(=O)[C@H](CCSC)NC(=O)[C@@H](CCC(=O)O)NC(=O)[C@H](CC(C)C)NC(=O)[C@@H](NC(=O)[C@H](CCC(=O)O)NC(=O)[C@H](CCCNC(=N)N)NC(=O)[C@H](CC(C)C)NC(=O)[C@H](CC(C)C)NC(=O)[C@H](Cc1c[nH]cn1)NC(=O)[C@H](Cc1ccccc1)NC(=O)[C@@H](NC(=O)[C@H](CC(C)C)NC(=O)[C@H](CC(=O)O)NC(=O)[C@H](CC(C)C)NC(=O)[C@H](CO)NC(=O)[C@@H](NC(=O)[C@@H]1CCCN1C(=O)[C@@H]1CCCN1C(=O)[C@H](CCC(=O)O)NC(=O)[C@H](CCC(=O)O)NC(=O)[C@@H](N)CO)[C@@H](C)CC)[C@@H](C)O)C(C)C)[C@@H](C)CC)C(N)=O [[D-Glu^20] CRH] |  |  |  |  |  |  |  |  |  |  |  |  |  |  |  | much less hypotensive activity |
